Laboratory results reported in the NIST ThermoML archive (doi:10.1021/je700300y).
± gives the expanded uncertainty stated by the source.

Experiment: xn = mol fraction of the nth substance listed
Conditions: 101 kPa, Liquid

CCO [ethanol] + O
mass density [kg/m3]
Conditions	283.15 K	288.15 K	293.15 K	298.15 K	303.15 K	308.15 K	313.15 K
x2 = 0.0805	808.05 ± 0.22	803.79 ± 0.22	799.51 ± 0.22	795.19 ± 0.23	790.85 ± 0.23	786.45 ± 0.23	782.01 ± 0.24
x2 = 0.1584	818.14 ± 0.21	813.87 ± 0.21	809.57 ± 0.22	805.23 ± 0.22	800.84 ± 0.22	796.41 ± 0.23	791.93 ± 0.23
x2 = 0.2376	828.89 ± 0.2	824.61 ± 0.21	820.29 ± 0.21	815.93 ± 0.21	811.53 ± 0.22	807.07 ± 0.22	802.5 ± 0.22
x2 = 0.3322	842.93 ± 0.19	838.67 ± 0.19	834.37 ± 0.2	830.01 ± 0.2	825.61 ± 0.2	821.15 ± 0.21	816.63 ± 0.21
x2 = 0.4026	854.12 ± 0.18	849.89 ± 0.19	845.61 ± 0.19	841.27 ± 0.19	836.89 ± 0.2	832.45 ± 0.2	827.94 ± 0.2
x2 = 0.491	869.86 ± 0.17	865.67 ± 0.17	861.44 ± 0.18	857.16 ± 0.18	852.81 ± 0.18	848.4 ± 0.19	843.95 ± 0.19
x2 = 0.5806	888.19 ± 0.16	884.08 ± 0.16	879.93 ± 0.16	875.71 ± 0.17	871.44 ± 0.17	867.11 ± 0.17	862.72 ± 0.18
x2 = 0.648	903.57 ± 0.15	899.55 ± 0.15	895.48 ± 0.15	891.35 ± 0.15	887.16 ± 0.16	882.91 ± 0.16	878.59 ± 0.16
x2 = 0.7185	921.65 ± 0.13	917.78 ± 0.13	913.84 ± 0.14	909.85 ± 0.14	905.8 ± 0.14	901.68 ± 0.15	897.49 ± 0.15
x2 = 0.8009	944.6 ± 0.11	941.07 ± 0.12	937.48 ± 0.12	933.81 ± 0.12	930.07 ± 0.12	926.25 ± 0.13	922.34 ± 0.13
x2 = 0.8813	965.96 ± 0.1	963.49 ± 0.1	960.85 ± 0.1	958.06 ± 0.1	955.13 ± 0.11	952.05 ± 0.11	948.82 ± 0.11
x2 = 0.9605	984.04 ± 0.08	983.11 ± 0.08	981.89 ± 0.08	980.42 ± 0.09	978.75 ± 0.09	976.91 ± 0.09	974.89 ± 0.09

CO [methanol] + O
mass density [kg/m3]
Conditions	283.15 K	288.15 K	293.15 K	298.15 K	303.15 K	308.15 K	313.15 K
x2 = 0.0871	814.96 ± 0.21	810.44 ± 0.22	805.91 ± 0.22	801.35 ± 0.22	796.78 ± 0.23	792.17 ± 0.23	787.52 ± 0.23
x2 = 0.1529	826.26 ± 0.2	821.86 ± 0.21	817.44 ± 0.21	812.99 ± 0.21	808.5 ± 0.22	803.98 ± 0.22	799.41 ± 0.22
x2 = 0.2395	841.8 ± 0.19	837.53 ± 0.2	833.23 ± 0.2	828.9 ± 0.2	824.53 ± 0.21	820.11 ± 0.21	815.64 ± 0.21
x2 = 0.3306	859.01 ± 0.18	854.89 ± 0.18	850.73 ± 0.19	846.53 ± 0.19	842.28 ± 0.19	837.98 ± 0.2	833.61 ± 0.2
x2 = 0.4064	873.83 ± 0.17	869.85 ± 0.17	865.81 ± 0.17	861.73 ± 0.18	857.59 ± 0.18	853.4 ± 0.18	849.13 ± 0.19
x2 = 0.4788	888.32 ± 0.16	884.5 ± 0.16	880.62 ± 0.16	876.68 ± 0.17	872.67 ± 0.17	868.59 ± 0.17	864.45 ± 0.17
x2 = 0.5552	904.06 ± 0.14	900.44 ± 0.15	896.75 ± 0.15	893 ± 0.15	889.17 ± 0.16	885.26 ± 0.16	881.28 ± 0.16
x2 = 0.6365	921.03 ± 0.13	917.69 ± 0.13	914.28 ± 0.14	910.78 ± 0.14	907.2 ± 0.14	903.52 ± 0.14	899.76 ± 0.15
x2 = 0.7321	941.06 ± 0.12	938.2 ± 0.12	935.24 ± 0.12	932.18 ± 0.12	929.02 ± 0.13	925.74 ± 0.13	922.36 ± 0.13
x2 = 0.7901	952.73 ± 0.11	950.29 ± 0.11	947.7 ± 0.11	945 ± 0.11	942.19 ± 0.12	939.27 ± 0.12	936.09 ± 0.12
x2 = 0.8807	970.64 ± 0.09	969.11 ± 0.09	967.39 ± 0.1	965.47 ± 0.1	963.37 ± 0.1	961.09 ± 0.1	958.65 ± 0.1
x2 = 0.964	988.96 ± 0.08	988.25 ± 0.08	987.25 ± 0.08	986 ± 0.08	984.5 ± 0.08	982.79 ± 0.08	980.87 ± 0.09
